Assay results published in US20140148443A1, “Novel Imidazolines as dual inhibitors of MDM2 and MDMX” (priority 2012, published 2014).

Experiments:
[1] = target: recombinant GST-tagged MDM2 (Homo sapiens, UniProt Q00987); test: HTRF assay of interaction between p53 peptide and GST-tagged MDM2; settings: inhibition of GST-MDM2 (160 ng/ml) binding to biotinylated p53-peptide
Procedure, shortened: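 Compounds were preincubated with 160 ng/ml GST-MDM2 and 90 nM N-terminally biotinylated p53-like peptide (final) in 20 mM TBS, 0.02% BSA, 1 mM DTT for 1 h at 37 °C. Eu-anti-GST antibody and streptavidin-APC were added for 30 min at room temperature; binding read as TR-FRET at 665 and 615 nm.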

GST-tagged MDMX = target: T1, GST-tagged MDMX (Homo sapiens, UniProt O15151); test: HTRF binding assay of GST-tagged MDMX to p53 peptide
T1 sequence (O15151 1-490): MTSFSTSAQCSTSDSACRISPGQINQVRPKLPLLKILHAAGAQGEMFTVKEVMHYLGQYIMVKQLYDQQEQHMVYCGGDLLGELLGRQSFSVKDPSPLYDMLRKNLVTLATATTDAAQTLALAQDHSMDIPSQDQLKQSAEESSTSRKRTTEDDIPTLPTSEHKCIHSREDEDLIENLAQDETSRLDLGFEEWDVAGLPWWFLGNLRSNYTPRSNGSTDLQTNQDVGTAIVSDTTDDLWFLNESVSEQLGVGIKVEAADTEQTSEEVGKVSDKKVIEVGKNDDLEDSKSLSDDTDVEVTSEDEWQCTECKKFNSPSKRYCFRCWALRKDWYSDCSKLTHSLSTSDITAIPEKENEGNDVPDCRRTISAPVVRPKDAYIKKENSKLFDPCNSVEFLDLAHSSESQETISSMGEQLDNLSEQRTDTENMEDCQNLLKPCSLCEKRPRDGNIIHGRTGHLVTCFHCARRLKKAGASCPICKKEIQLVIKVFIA

Chain of recombinant GST-tagged MDM2 (Q00987 whole entry): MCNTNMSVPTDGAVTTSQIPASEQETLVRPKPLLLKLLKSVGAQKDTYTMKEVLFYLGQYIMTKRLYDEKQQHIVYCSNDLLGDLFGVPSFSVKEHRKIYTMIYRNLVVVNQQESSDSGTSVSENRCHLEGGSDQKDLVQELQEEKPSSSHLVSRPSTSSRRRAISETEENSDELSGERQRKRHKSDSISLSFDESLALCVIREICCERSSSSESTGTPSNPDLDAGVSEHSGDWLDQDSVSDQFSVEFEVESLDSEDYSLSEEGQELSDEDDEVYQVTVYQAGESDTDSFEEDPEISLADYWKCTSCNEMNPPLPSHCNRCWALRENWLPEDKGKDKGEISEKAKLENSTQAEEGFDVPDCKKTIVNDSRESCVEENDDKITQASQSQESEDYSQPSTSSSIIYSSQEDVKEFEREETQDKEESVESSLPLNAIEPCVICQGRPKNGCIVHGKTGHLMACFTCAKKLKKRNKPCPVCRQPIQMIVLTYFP

| Structure (SMILES) | IC50 [1] [nM] | IC50 (GST-tagged MDMX) [nM] |
| --- | --- | --- |
| CC(C)Oc1cc(Cl)c(S(C)(=O)=O)cc1C1=N[C@@](C)(c2ccc(Cl)cc2)[C@@](C)(c2ccc(Cl)cc2)N1C(=O)N1CCC(CC(N)=O)CC1 [Example 41, 2-{1-[(4S,5R)-2-(4-Chloro-2-isopropoxy-5-methanesulfonyl-phenyl)-4,5-bis-(4-chloro-phenyl)-4,5-dimethyl-4,5-dihydro-imidazole-1-carbonyl]-piperidin-4-yl}-acetamide] | 6.9 | 170 |
| C[C@@]1(c2ccc(Cl)cc2)N=C(c2cc(S(C)(=O)=O)c(Cl)cc2OCC2CC2)N(C(=O)N2CCN(CCCS(C)(=O)=O)CC2)[C@]1(C)c1ccc(Cl)cc1 [Example 42, [(4S,5R)-2-(4-Chloro-2-cyclopropylmethoxy-5-methanesulfonyl-phenyl)-4,5-bis-(4-chloro-phenyl)-4,5-dimethyl-4,5-dihydro-imidazol-1-yl]-[4-(3-methanesulfonyl-propyl)-piperazin-1-yl]-methanone] | 12.5 | 6630 |
| C[C@@]1(c2ccc(Cl)cc2)N=C(c2cc(S(C)(=O)=O)c(Cl)cc2OCCF)N(C(=O)N2CCN(CCCS(C)(=O)=O)CC2)[C@]1(C)c1ccc(Cl)cc1 [Example 43, [(4S,5R)-2-[4-Chloro-2-(2-fluoro-ethoxy)-5-methanesulfonyl-phenyl]-4,5-bis-(4-chloro-phenyl)-4,5-dimethyl-4,5-dihydro-imidazol-1-yl]-[4-(3-methanesulfonyl-propyl)-piperazin-1-yl]-methanone] | 9.7 | 1380 |
| CCC(C)Oc1cc(Cl)c(S(C)(=O)=O)cc1C1=N[C@@](C)(c2ccc(Cl)cc2)[C@@](C)(c2ccc(Cl)cc2)N1C(=O)N1CCN(CCCS(C)(=O)=O)CC1 (stereo partly drawn) [Example 44, [(4S,5R)-2-(2-sec-Butoxy-4-chloro-5-methanesulfonyl-phenyl)-4,5-bis-(4-chloro-phenyl)-4,5-dimethyl-4,5-dihydro-imidazol-1-yl]-[4-(3-methanesulfonyl-propyl)-piperazin-1-yl]-methanone] | 13.9 | 1530 |
| CCOc1cc(Cl)c(S(=O)(=O)NC(C)(C)C)cc1C1=N[C@@](C)(c2ccc(Cl)cc2)[C@@](C)(c2ccc(Cl)cc2)N1C(=O)N1CCN(CCC(O)CO)CC1 (stereo partly drawn) [Example 45, 5-{(4S,5R)-4,5-Bis-(4-chloro-phenyl)-1-[4-(3,4-dihydroxy-butyl)-piperazine-1-carbonyl]-4,5-dimethyl-4,5-dihydro-1H-imidazol-2-yl}-N-tert-butyl-2-chloro-4-ethoxy-benzene sulfonamide] | 12.9 | 1130 |
| CCOc1cc(Cl)c(S(=O)(=O)NC(C)(C)C)cc1C1=N[C@@](C)(c2ccc(Cl)cc2)[C@@](C)(c2ccc(Cl)cc2)N1C(=O)N1CCN(CCOCCO)CC1 [Example 46, 5-((4S,5R)-4,5-Bis-(4-chloro-phenyl)-1-{4-[2-(2-hydroxy-ethoxy)-ethyl]-piperazine-1-carbonyl}-4,5-dimethyl-4,5-dihydro-1H-imidazol-2-yl)-N-tert-butyl-2-chloro-4-ethoxy-benzenesulfonamide] | 12.2 | 1810 |
| CCOc1cc(Cl)c(S(=O)(=O)NC(C)(C)C)cc1C1=N[C@@](C)(c2ccc(Cl)cc2)[C@@](C)(c2ccc(Cl)cc2)N1C(=O)N1CCN(CC(=O)N2CCN(C)CC2)CC1 [Example 47, 5-((4S,5R)-4,5-Bis-(4-chloro-phenyl)-4,5-dimethyl-1-{4-[2-(4-methyl-piperazin-1-yl)-2-oxo-ethyl]-piperazine-1-carbonyl}-4,5-dihydro-1H-imidazol-2-yl)-N-tert-butyl-2-chloro-4-ethoxy-benzenesulfonamide] | 6.6 | 1080 |
| CCOc1cc(Cl)c(S(=O)(=O)NC(C)(C)C)cc1C1=N[C@@](C)(c2ccc(Cl)cc2)[C@@](C)(c2ccc(Cl)cc2)N1C(=O)N1CCN(CC(=O)NCCOC)CC1 [Example 49, 2-{4-[(4S,5R)-2-(5-tert-Butylsulfamoyl-4-chloro-2-ethoxy-phenyl)-4,5-bis-(4-chloro-phenyl)-4,5-dimethyl-4,5-dihydro-imidazole-1-carbonyl]-piperazin-1-yl}-N-(2-methoxy-ethyl)-acetamide] | 8.7 | 1340 |
| CCOc1cc(Cl)c(S(=O)(=O)NC(C)(C)C)cc1C1=N[C@@](C)(c2ccc(Cl)cc2)[C@@](C)(c2ccc(Cl)cc2)N1C(=O)N1CCN(CCC(N)=O)CC1 [Example 50, 3-{4-[(4S,5R)-2-(5-tert-Butylsulfamoyl-4-chloro-2-ethoxy-phenyl)-4,5-bis-(4-chloro-phenyl)-4,5-dimethyl-4,5-dihydro-imidazole-1-carbonyl]-piperazin-1-yl}-propionamide] | 9.3 | 1450 |
| CCOc1cc(Cl)c(S(=O)(=O)NC(C)(C)C)cc1C1=N[C@@](C)(c2ccc(Cl)cc2)[C@@](C)(c2ccc(Cl)cc2)N1C(=O)N1CCN(C2CCS(=O)(=O)C2)CC1 (stereo partly drawn) [Example 51, 5-{(4S,5R)-4,5-Bis-(4-chloro-phenyl)-1-[4-(1,1-dioxo-tetrahydro-thiophen-3-yl)-piperazine-1-carbonyl]-4,5-dimethyl-4,5-dihydro-1H-imidazol-2-yl}-N-tert-butyl-2-chloro-4-ethoxy-benzenesulfonamide] | 7 | 798 |
| CCOc1cc(Cl)c(S(=O)(=O)NC(C)(C)C)cc1C1=N[C@@](C)(c2ccc(Cl)cc2)[C@@](C)(c2ccc(Cl)cc2)N1C(=O)N1CCN(C(=O)Cn2cnnn2)CC1 [Example 52, 5-{(4S,5R)-4,5-Bis-(4-chloro-phenyl)-4,5-dimethyl-1-[4-(2-tetrazol-1-yl-acetyl)-piperazine-1-carbonyl]-4,5-dihydro-1H-imidazol-2-yl}-N-tert-butyl-2-chloro-4-ethoxy-benzene sulfonamide] | 17.3 | 3760 |
| CCOc1cc(Cl)c(S(=O)(=O)NC(C)(C)C)cc1C1=N[C@@](C)(c2ccc(Cl)cc2)[C@@](C)(c2ccc(Cl)cc2)N1C(=O)N1CCC(N2CCNC(=O)CC2)CC1 [Example 53, 5-{(4S,5R)-4,5-Bis-(4-chloro-phenyl)-4,5-dimethyl-1-[4-(5-oxo-[1,4]diazepan-1-yl)-piperidine-1-carbonyl]-4,5-dihydro-1H-imidazol-2-yl}-N-tert-butyl-2-chloro-4-ethoxy-benzene sulfonamide] | 14.5 | 1110 |
| CCOc1cc(Cl)c(S(=O)(=O)NC(C)(C)C)cc1C1=N[C@@](C)(c2ccc(Cl)cc2)[C@@](C)(c2ccc(Cl)cc2)N1C(=O)N1CCCC(O)C1 (stereo partly drawn) [Example 54, 5-[(4S,5R)-4,5-Bis-(4-chloro-phenyl)-1-(3-hydroxy-piperidine-1-carbonyl)-4,5-dimethyl-4,5-dihydro-1H-imidazol-2-yl]-N-tert-butyl-2-chloro-4-ethoxy-benzenesulfonamide] | 16.1 | 4000 |
| CCCOc1cc(Cl)c(S(=O)(=O)N2CCCC2)cc1C1=N[C@@](C)(c2ccc(Cl)cc2)[C@@](C)(c2ccc(Cl)cc2)N1C(=O)N1CCN(CCCS(C)(=O)=O)CC1 [Example 55, {(4S,5R)-4,5-Bis-(4-chloro-phenyl)-2-[4-chloro-2-propoxy-5-(pyrrolidine-1-sulfonyl)-phenyl]-4,5-dimethyl-4,5-dihydro-imidazol-1-yl}-[4-(3-methanesulfonyl-propyl)-piperazin-1-yl]-methanone] | 18.1 | 3940 |
| CCOc1cc(Cl)c(S(=O)(=O)N2CCCC2)cc1C1=N[C@@](C)(c2ccc(Cl)cc2)[C@@](C)(c2ccc(Cl)cc2)N1C(=O)N1CCC(CC(N)=O)CC1 [Example 56, 2-{1-[(4S,5R)-2-[4-Chloro-2-ethoxy-5-(pyrrolidine-1-sulfonyl)-phenyl]-4,5-bis-(4-chloro-phenyl)-4,5-dimethyl-4,5-dihydro-imidazole-1-carbonyl]-piperidin-4-yl}-acetamide] | 8.5 | 3430 |
| CCOc1cc(Cl)c(S(=O)(=O)N2CCOCC2)cc1C1=N[C@@](C)(c2ccc(Cl)cc2)[C@@](C)(c2ccc(Cl)cc2)N1C(=O)N1CCN(CCCS(C)(=O)=O)CC1 [Example 57, [(4S,5R)-2-[4-Chloro-2-ethoxy-5-(morpholine-4-sulfonyl)-phenyl]-4,5-bis-(4-chloro-phenyl)-4,5-dimethyl-4,5-dihydro-imidazol-1-yl]-[4-(3-methanesulfonyl-propyl)-piperazin-1-yl]-methanone] | 40 | 1640 |
| CC(C)Oc1cc(Cl)c(S(=O)(=O)N2CCCC2)cc1C1=N[C@@](C)(c2ccc(Cl)cc2)[C@@](C)(c2ccc(Cl)cc2)N1C(=O)N1CCN(CCCS(C)(=O)=O)CC1 [Example 58, [(4S,5R)-2-[4-Chloro-2-isopropoxy-5-(pyrrolidine-1-sulfonyl)-phenyl]-4,5-bis-(4-chloro-phenyl)-4,5-dimethyl-4,5-dihydro-imidazol-1-yl]-[4-(3-methanesulfonyl-propyl)-piperazin-1-yl]-methanone] | 4.6 | 232 |
| CC(C)Oc1cc(Cl)c(S(=O)(=O)N2CCCC2)cc1C1=N[C@@](C)(c2ccc(Cl)cc2)[C@@](C)(c2ccc(Cl)cc2)N1C(=O)N1CCC(CC(N)=O)CC1 [Example 59, 2-{1-[(4S,5R)-2-[4-Chloro-2-isopropoxy-5-(pyrrolidine-1-sulfonyl)-phenyl]-4,5-bis-(4-chloro-phenyl)-4,5-dimethyl-4,5-dihydro-imidazole-1-carbonyl]-piperidin-4-yl}-acetamide] | 5.8 | 195 |
